Assay results reported in US20220023291A1, “COMPOSITIONS AND METHODS FOR REGULATING INFLAMMATION” (University of Virginia Patent Foundation, priority 2018, published 2022).
“Also recorded” adds a separate entry of the source.

What was measured:
[1] = molecular target: T1, IRE1 endonuclease activity (Mus musculus, UniProt Q9EQY0); experiment: XBP1 splicing ratio by qPCR in BMDM; assay type: cell-based
T1 construct: We prepared bone marrow derived macrophages (BMDM) from WT and S1R KO mice; endogenous in cells; host or cells: primary mouse bone marrow derived macrophages (WT and S1R KO, C57BL/6J background)
T1 sequence (Q9EQY0 21-977): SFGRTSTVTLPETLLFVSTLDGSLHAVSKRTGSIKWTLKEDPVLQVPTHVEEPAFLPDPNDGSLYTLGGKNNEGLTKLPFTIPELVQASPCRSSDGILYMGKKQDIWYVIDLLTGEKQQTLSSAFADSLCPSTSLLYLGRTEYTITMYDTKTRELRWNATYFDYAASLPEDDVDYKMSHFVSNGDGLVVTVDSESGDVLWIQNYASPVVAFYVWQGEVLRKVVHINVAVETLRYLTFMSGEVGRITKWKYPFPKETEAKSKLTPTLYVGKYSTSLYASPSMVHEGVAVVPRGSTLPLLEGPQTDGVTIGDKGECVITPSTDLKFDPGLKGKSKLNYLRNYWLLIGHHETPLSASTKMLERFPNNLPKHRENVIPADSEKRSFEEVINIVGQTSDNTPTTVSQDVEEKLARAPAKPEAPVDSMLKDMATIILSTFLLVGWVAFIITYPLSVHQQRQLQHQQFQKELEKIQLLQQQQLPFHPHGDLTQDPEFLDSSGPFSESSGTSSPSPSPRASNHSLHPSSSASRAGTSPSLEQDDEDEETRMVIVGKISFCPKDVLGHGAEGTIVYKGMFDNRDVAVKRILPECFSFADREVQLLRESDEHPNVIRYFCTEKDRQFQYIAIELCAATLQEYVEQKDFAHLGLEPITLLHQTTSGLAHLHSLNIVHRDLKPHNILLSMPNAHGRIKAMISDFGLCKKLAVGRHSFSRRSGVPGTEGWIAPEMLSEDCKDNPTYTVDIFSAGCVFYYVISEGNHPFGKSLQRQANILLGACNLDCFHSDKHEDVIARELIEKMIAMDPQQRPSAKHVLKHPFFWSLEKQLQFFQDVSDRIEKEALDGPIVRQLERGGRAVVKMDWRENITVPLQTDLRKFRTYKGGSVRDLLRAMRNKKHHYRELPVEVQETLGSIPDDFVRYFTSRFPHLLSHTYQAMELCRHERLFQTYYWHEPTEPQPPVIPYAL
Protocol: (§1) Tissue culture conditions and Reagents. HEK293 cells, primary lung fibroblasts and BMDM were isolated and maintained as described (41-43). Cells were treated with LPS (Sigma, L4391), 4μ8C (Tocris, 4479), tunicamycin (Tocris, 3516), PD98059 (Medchem Express HY-12028), JSH-23 (Medchem Express, Hy-13982), SP600125 (Medchem Express, HY-12041), cycloheximide (Tocris, 0970), lactacystin (Cayman Chemical, 70980), chloroquine (Fisher, ICN19391925), and STF 083010 (Medchem Express, HY-15845) as described in the text.
cDNA synthesis and quantitative RT-PCR. Total RNA was extracted using an ISOLATE II RNA (Bioline, 52073) and cDNA synthesis was performed with the ISCRIPT™ kit (Bio-Rad, 170-8891). TaqMan Probes were obtained from Life Technologies (GAPDH: Mm99999915_g1; IL-6: Mm00446190_m1; pro-IL-1β: Mm00434228_m1; TNFα: Mm00443258_m1). Primers for IRE1 detection were GCACGUGAAUUGAUAGAGA (SEQ ID NO: 10) and UCUCUAUCAAUUCACGUGC (SEQ ID NO: 11). Primers for the detection of XBP1 were previously published (Lipson et al., 2008). RT-PCR was performed as described previously (Gaultier et al., 2009).
cDNA synthesis and quantitative PCR. Total RNA was extracted using an ISOLATE II RNA kit (Bioline, 52073) and cDNA synthesis was performed with the SENSIFAST™ cDNA synthesis kit (Bioline, BIO-65054). TaqMan Probes were obtained from Thermo Fisher (GAPDH: Mm99999915_g1; IL-6: Mm00446190_m1; pro-IL-1β: Mm00434228_m1; IL10: Mm004396). Primers for the detection of XBP1, IL-8, and actin were previously published (Vandesompele et al., 2002; Kumar & Valdivia, 2008; Girard et al., 2009). qPCR was performed as described previously (Gaultier et al., 2008).

FIP sepsis model mice = experiment: Fecal induced peritonitis (FIP); assay type: in vivo, mouse; details: for Survival: 1.5 g/kg fecal slurry
Protocol: Fecal induced peritonitis (FIP). Fecal material was isolated from the caecum of age- and sex-matched WT animals coming from the UVA vivarium for FIGS. 10A-10D and 10L-10R or from Jackson Laboratory for FIGS. 12D-12O, resuspended in saline and passed through a […] strainer to remove large particles. The slurry was prepared fresh for each experiment. Core body temperature was measured and mice were scored with murine sepsis severity scale by two independent, blinded researchers (Shrum et al., 2014). Blood for serum ELISA was collected from facial vein at 3 hours post FIP induction. Where indicated, fluvoxamine in saline was administered intraperitoneally at a dose of 20 mg/kg, and ceftriaxone in saline was given at a dose of 100 mg/kg subcutaneously.

BMDM = experiment: IL-6 ELISA on supernatant of LPS-stimulated BMDM; assay type: cell-based, mouse; details: 1 μg/mL LPS, 6 hours; for Difference in LPS-induced IL-6 secretion between WT and S1R KO BMDM: 20 μM JSH-23, 20 μM PD98059, 1 μM SP600125, 5 μM 4μ8C; for LPS-induced IL-6 secretion: WT and S1R KO BMDM, 20 μM JSH-23, 20 μM PD98059, 1 μM SP600125
Protocol: as §1
ELISA. ELISA for IL-6 and TNFα were performed as previously described (Remick et al., 2002). Antibodies used were: anti-mouse IL-6 MP5-20F3 (Biolegend, 504501) 0.5 μg/mL; biotin anti-mouse IL-6 MP5-32C11 (Biolegend, 504601) 1 μg/mL; anti-mouse TNFα (R&D systems, AF-410-NA) 0.5 μg/mL; biotin anti-mouse TNFα (R&D systems, BAF410) 0.25 μg/mL.
Tissue culture conditions and Reagents. HEK293 mTLR4/MD2/CD14 (Invivogen, 293-mtlr4md2cd14), primary lung fibroblasts, and BMDM were isolated and maintained as described (Zhang et al., 2008; Seluanov et al., 2010). Cells and animals were treated with LPS (Sigma, L4391), 4μ8C (Tocris, 4479), APY-29 (Medchem Express HY-17537), PD98059 (Medchem Express HY-12028), JSH-23 (Medchem Express, HY-13982), SP600125 (Medchem Express, HY-12041), STF 083010 (Medchem Express, HY-15845), Fluvoxamine (Medchem Express, HY-B0103A), and Ceftriaxone (Hospira, NDC: 0409-7337-01), as described in the text.
ELISA. ELISA for IL-6 and TNF-α were performed as previously described (Remick et al., 2002). Antibodies used were: anti-mouse IL-6 MP5-20F3 (Biolegend, 504501) 0.5 μg/mL; biotin anti-mouse IL-6 MP5-32C11 (Biolegend, 504601) 1 μg/mL; anti-mouse TNF-α (R&D systems, AF-410-NA) 0.5 μg/mL; biotin anti-mouse TNF-α (R&D systems, BAF410) 0.25 μg/mL.

LPS challenged mice = experiment: In vivo LPS (endotoxin) challenge; set-up: species or system mouse
Protocol: Endotoxin challenge. In vivo endotoxin challenge was performed on mice at 8-12 weeks of age. LPS from E. coli 0111:B4 (Sigma-Aldrich, L2630) was injected intraperitoneally as described in the manuscript. STF 083010 (Medchem Express, HY-15845) was resuspended in 33% Kolliphor-EL (Sigma, C5135) and administered intraperitoneally at 30 mg/kg immediately after and again 24 hours after LPS injection.
Peritoneal contents collection. Three hours after LPS injection, peritoneal cavities were washed with 2.5 mL of ice-cold PBS+5 mM EDTA, and then centrifuged to pellet cells. Supernatants were collected for ELISA, and the remaining cells were washed and stored as previously described (Gaultier et al., 2008).
LPS challenge. In vivo LPS challenge was performed on adult mice (8-12 weeks of age). LPS from E. coli 0111:B4 (Sigma-Aldrich, L2630) was injected intraperitoneally, as described in the manuscript. STF083010 (Medchem Express, HY-15845) was resuspended in 33% Kolliphor-EL (Sigma, C5135) and administered intraperitoneally at 30 mg/kg immediately after and again 24 hours after LPS injection. Fluvoxamine was resuspended in saline and administered at 20 mg/kg as indicated in the text. Blood for serum ELISA was collected from facial vein at the peak serum concentration of TNF-α and IL-6 (Copeland et al., 2005a).
Peritoneal exudates collection. Peritoneal cavities content were collected 3 hours after LPS injection in PBS+5 mM EDTA, then centrifuged to pellet cells. Supernatants were collected for ELISA, and cells were washed and stored as previously described (Gaultier et al., 2008).

HEK293 cells = experiment: Immunoblot for total IRE1 in HEK293 cells overexpressing IRE1 and S1R; assay type: cell-based; details: 5 μM lactacystin or 30 μM chloroquine, 6 hours
Description: Western blot. […] Linear level adjustments were applied to entire images to enhance visualization.
Transfection of proteins for overexpression.

[2] = system: heparinized peripheral blood from healthy donors; experiment: Human whole blood stimulation ex vivo with LPS, multiplex cytokine analysis; assay type: cell-based; details: 10 ng/mL LPS, 20 μM fluvoxamine, 4 hours
Protocol: Human whole blood stimulation. Study participants were healthy adults (ages 18-45). The study was approved by the Institutional Review Board at the University of Virginia, and all participants signed informed consent before enrollment. Blood was collected into heparinized vacuum tube, then stimulated with 10 ng/mL LPS+/−20 μM fluvoxamine for 4 hours, as described (Thurm & Halsey, 2005). Cytokine concentrations were determined by multiplex analysis.

sigma-1 receptor = sigma-1 receptor (Homo sapiens, UniProt Q99720); details: cited from earlier work
Sequence of sigma-1 receptor (Q99720 whole entry): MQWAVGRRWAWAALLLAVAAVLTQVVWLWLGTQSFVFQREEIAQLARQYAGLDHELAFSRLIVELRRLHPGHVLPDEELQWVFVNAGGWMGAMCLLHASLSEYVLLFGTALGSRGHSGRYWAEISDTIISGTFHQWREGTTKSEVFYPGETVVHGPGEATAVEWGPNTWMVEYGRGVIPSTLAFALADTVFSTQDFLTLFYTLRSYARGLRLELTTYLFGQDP

[3] = treatment 90 min post FIP induction, fluvoxamine 20 mg/kg i.p. and/or ceftriaxone 100 mg/kg s.c.
[4] = LPS 2 mg/kg co-administered with STF 30 mg/kg
[5] = LPS 2 mg/kg, STF 30 mg/kg i.p. at 0 hours and 24 hours
[6] = LPS 6 mg/kg, fluvoxamine 20 mg/kg at the same time as LPS

## c1cc(Nc2cc(C3CC3)[nH]n2)nc(Nc2ccc3nc[nH]c3c2)n1 [APY29]
[1]; WT vs S1R KO BMDM, activator of IRE1, 6 hours
  XBP1 splicing amounts after forced IRE1 activation: equal in both genotypes

## CO/N=C(\C(=O)N[C@@H]1C(=O)N2C(C(=O)O)=C(CSc3nc(=O)c(=O)[nH]n3C)CS[C@H]12)c1csc(N)n1 [Ceftriaxone]
FIP sepsis model mice; [3]
  Survival: enhancing survival

## Cc1ccc(NCCCc2ccccc2)c(N)c1 [JSH-23]
BMDM
  Difference in LPS-induced IL-6 secretion between WT and S1R KO BMDM: did not eliminate the difference
  LPS-induced IL-6 secretion: reduced LPS-induced IL-6 secretion

## COc1cccc(-c2cc(=O)c3ccccc3o2)c1N [PRESENTLY DISCLOSED 98059]
BMDM
  Difference in LPS-induced IL-6 secretion between WT and S1R KO BMDM: without altering the ability of S1R KO BMDM to produce more IL-6
  LPS-induced IL-6 secretion: significant decrease in IL-6 production

## O=S(=O)(N=Cc1c(O)ccc2ccccc12)c1cccs1 [STF, N-[(2-Hydroxy-1-naphthalenyl)methylene]-2-thiophenesulfonamide]
BMDM; STF 083010 (60 μM) compared with 4μ8C (5 μM), FIG. 7A
  Blocking IL-6 secretion in S1R KO BMDM stimulated with LPS: as effective as 4μ8C
BMDM; BMDM, 20 μM STF
  IRE1 inhibitor effectiveness (IL-6 ELISA, FIG. 11C): effective IRE1 inhibitor
LPS challenged mice; [4]
  Median survival of S1R KO mice: 113 h
  Mortality of S1R KO mice: 62.5%
LPS challenged mice; [5]
  LPS induced mortality / survival of S1R KO mice: largely rescued; also recorded: spared KO mice from LPS induced mortality; also recorded: clear benefit in S1R KO survival
  Survival of WT mice: did not significantly affect the survival of WT mice
LPS challenged mice; S1R KO mice, LPS 2 mg/kg, STF 30 mg/kg i.p., serum 3 hours after LPS
  Serum IL-6: significantly decreased serum IL-6; also recorded: trend toward decreased IL-6
LPS challenged mice; S1R KO mice, LPS 2 mg/kg, STF 30 mg/kg, 3 hours after LPS
  IL-6 in the peritoneal exudate: corrected by STF treatment

## CCN(CC)CCCC(C)Nc1ccnc2cc(Cl)ccc12 (stereo not shown) [chloroquine]
HEK293 cells
  Rescue of IRE1 protein levels in the presence of S1R overexpression: Neither lactacystin nor chloroquine treatment could rescue IRE1 protein levels

## COCCCC/C(=N\OCCN)c1ccc(C(F)(F)F)cc1 [fluvoxamine]
[2]
  Breadth of modulation of inflammatory mediators (FIG. 14): limited to a subset of inflammatory mediators
  IL-8 production: decreased
  LPS-induced IL-1β: significantly reduced
  LPS-induced IL-6: significantly reduced
  LPS-induced IL-12 p40: significantly reduced
sigma-1 receptor
  Affinity for / binding to sigma-1 receptor (S1R): low-nanomolar affinity; also recorded: high affinity
LPS challenged mice; C57BL/6J, 24 hours after LPS, fluvoxamine 90 min post LPS challenge
  Rectal temperature: improved
LPS challenged mice; C57BL/6J, LPS 6 mg/kg, fluvoxamine 90 min post LPS challenge
  Clinical score (total murine sepsis score): improved
LPS challenged mice; C57BL/6J, LPS 6 mg/kg, therapeutic fluvoxamine 90 min post LPS challenge
  Survival: significantly enhanced survival
LPS challenged mice; [6]
  Mortality of S1R KO animals: no significant effect
  Mortality of WT mice: significantly protected WT mice from mortality
  Serum IL-6 in S1R KO animals: no significant effect
LPS challenged mice; LPS 6 mg/kg, fluvoxamine 20 mg/kg at the same time as LPS, 3 hours after LPS
  Serum IL-6 in WT mice: reduced serum IL-6
FIP sepsis model mice; therapeutic fluvoxamine 30 min post FIP induction
  Survival: significantly enhanced survival
FIP sepsis model mice; [3]
  Survival: as efficacious in enhancing survival as Ceftriaxone
FIP sepsis model mice; C57BL/6J, 24 hours after FIP induction, fluvoxamine 30 min post FIP induction
  Rectal temperature: improved
FIP sepsis model mice; C57BL/6J, fluvoxamine 30 min post FIP induction
  Clinical score (total murine sepsis score): improved

## CC(=O)N[C@@H](CSC(=O)[C@]1([C@@H](O)C(C)C)NC(=O)[C@H](C)[C@@H]1O)C(=O)O [lactacystin]
HEK293 cells
  Rescue of IRE1 protein levels in the presence of S1R overexpression: Neither lactacystin nor chloroquine treatment could rescue IRE1 protein levels

## tunicamycin
[1]; S1R KO vs WT BMDM, 5 μM tunicamycin, 6 hours
  XBP1 splicing after tunicamycin: elevated XBP1 splicing in S1R KO BMDM
